Data on 2 molecules can be found in patent US11154515B2, “Pharmaceutical compositions comprising cannabidiol and beta-caryophyllene and methods for their use” (priority 2017, dated 2021).

Where two headings read alike, the source gives them in different places.

Assay [1] relates to male NMRI mice, mechanonociceptive threshold of the hind paws. In words: Carrageenan-induced mechanical hyperalgesia, mechanonociceptive threshold by dynamic plantar aesthesiometry. Format: in vivo, mouse. The following applies: for effect on mechanonociceptive threshold when applied alone: CBD 1 mg/kg, BCP 10 mg/kg; for suppression of the mechanonociceptive threshold by carrageenan: most CBD and BCP single pre-treatments, three hours after carrageenan; for basal mechanonociceptive threshold vs vehicle-treated mice: single doses i.p. (CBD 0.5, 1, 10, 30 mg/kg; BCP 1, 5, 10, 30 mg/kg), 30 min after administration; for carrageenan-induced drop of the mechanonociceptive threshold: 3 hours after carrageenan. The method, then:
CBD and BCP solutions (≥80%, FCC, FG) were dissolved in a solution containing 10% Tween 80 and 90% saline (vehicle) and were freshly prepared immediately before use. Mice were treated with drug solutions or vehicle control by intraperitoneal (i.p.) injection at a volume of 0.1 mL/10 g body weight. Acute paw injury was induced by intraplantar injection of 20 μL 3% carrageenan (dissolved in 0.9% NaCl, Sigma Aldrich, St. Louis, Mo., USA) into the right hind paw.
Experiments were performed on 7-16-week-old male NMRI mice (30-50 g) provided with standard chow and water ad libitum. Mice were divided into groups and treated with a single dose of vehicle control (VEH), CBD, BCP, or CBD+BCP delivered i.p. 30 minutes after drug administration, measurements were taken to determine baseline values for mechanonociceptive thresholds and paw volumes. 35 minutes after drug administration, 20 μL of 3% carrageenan was injected intraplantarly (i.pl.) in the right hind paws. 3 hours after carrageenan administration, additional measurements were taken to determine the mechanonociceptive thresholds and paw volumes of the ipsilateral and contralateral paws.
The mechanonociceptive threshold of the hind paws were measured by dynamic plantar aesthesiometry (DPA, Ugo Basile 37400, Comerio, Italy). Mice were placed into plexiglass boxes with a wire grid floor. After acclimation, the plantar surface was touched with a straight metal filament, lifting with increasing upward force (until the animal withdrew his paw or until the maximum force of 10 g was reached (maximum force of 10 g reached within 4 s). Mechanonociceptive thresholds are expressed in gram (g), while mechanical hyperalgesia is represented as a percentage decrease from the initial withdrawal thresholds (i.e., before drug and carrageenan administration) (Bolcskei K. et al., Pain. 2005; 117:368-76).

Assay [2] relates to NF-κB and AP-1 inducible SEAP reporter in RAW-Blue™ cells. Nature of the assay: RAW-Blue™ cells Quanti-Blue™ SEAP reporter assay, LPS-stimulated (high-throughput inflammatory assay). It counts as cell-based, murine. The source says:
RAW 264.7 macrophages are commonly used to study the functional characteristics of the endocannabinoid system (ECS). Specifically, this model is widely employed to assess the anti-inflammatory functions of the ECS (Carrier, et al. 2006, “Inhibition of an equilibrative nucleoside transporter by cannabidiol: A mechanism of cannabinoid immunosuppression,” PNAS, 103(20), 7895-7900). RAW-Blue™ cells are derived from RAW 264.7 macrophages and are genetically modified to comprise a secreted embryonic alkaline phosphatase (SEAP) reporter construct that is inducible by NF-κB and AP-1. These RAW-Blue™ cells express a variety of pattern recognition receptors, including Toll like receptor 4 (TLR4). The activation of these pattern recognition receptors on the RAW-Blue™ cells (e.g., by lipopolysaccharide (LPS) in the case of TLR4) induces signaling through NF-κB and/or AP-1, thereby leading to increased secretion of the SEAP reporter gene. Therefore, the RAW-Blue™ macrophages and provide a robust, high-throughput model of inflammatory processes.
RAW-Blue™ cells were cultured in high-glucose containing Dulbecco's Modified Eagle Medium (Merck) supplemented with 10 (V/V) % fetal bovine serum (FBS; ThermoFisher), 2-4 mM L-glutamine, 50 U/mL penicillin, 50 μg/mL streptomycin as well as with antibiotics for selection: 100 μg/mL Normocin™ (InvivoGen) and Zeocin™ (InvivoGen). Cells were cultured at 37° C. in humidified, 5% CO2 containing atmosphere. The medium was changed every other day, and cells were sub-cultured at 70-80% confluence.
For each of these phases, 100,000 RAW-Blue™ cells/well were seeded in a 96-well plate in triplicate and cultured for 24 hours to allow attachment of the macrophages to the cell culture plate. After 24 hrs cells were pre-treated with selected concentrations of CBD, BCP, or CBD+BCP. Two hours after drug pre-treatment, cells were stimulated with 0.1 μg/mL LPS (Sigma-Aldrich) to induce activation of the TLR4 pathway. After 24 hours of LPS stimulation, 150 μL Quanti-Blue™ Medium was aliquoted per well in a 96-well plate and 50 μL of the experimental supernatants were added per well. Cell culture medium was used as negative control. After 1 hour incubation, SEAP levels were detected by measuring absorbance levels at λ=650 nm at 37° C. Results are expressed as a % decrease in SEAP levels in drug-treated, LPS-stimulated groups compared to the SEAP level of the untreated, LPS-stimulated group (regarded as 100%). All experiments were repeated 2-3 times.

Where [3] appears, read: Mus musculus, RAW-Blue, read-out: % Inhibition Alone.

As to `C=C1CC/C=C(\C)CC[C@H]2[C@H]1CC2(C)C` [BCP, (E)-beta-caryophyllene], in assay [1] (30 mg/kg i.p., vs vehicle, p<0.001), the carrageenan-induced mechanical hyperalgesia result is “significantly reduced”. Further, in assay [1], the “effect on mechanonociceptive threshold when applied alone” value is “negligible effects”; the “suppression of the mechanonociceptive threshold by carrageenan” value was “only mildly influenced”; the “basal mechanonociceptive threshold vs vehicle-treated mice” value was “none of the investigated single doses of CBD and BCP influenced the basal mechanonociceptive threshold”. In assay [2] (setting [3]), the inhibition at 0.0001 µM is 0%, the inhibition at 0.001 µM was found to be 1 ± 0.8%, the inhibition at 0.01 µM stood at 3.8 ± 1.9% and the inhibition at 0.013 µM stood at 9.2%. In assay [2] (setting [3]), the inhibition at 0.1 µM was found to be 8 ± 6.4%, the inhibition at 0.13 µM amounted to 0%, the inhibition at 0.3 µM was found to be 1.6 ± 1.4% and the inhibition at 1 µM was 2.5 ± 2%. Besides, in assay [2] (setting [3]), the inhibition at 3 µM came to 1.25 ± 1%, the inhibition at 10 µM worked out at 28.6 ± 14.3%, the inhibition at 30 µM came out at 0% and the inhibition at 100 µM came to 11.7 ± 5.8%. Also, the inhibition at 300 µM in assay [2] (setting [3]) came to 92.2 ± 17.1%. Also, in assay [2] (SEAP levels), the “anti-inflammatory actions when applied alone” value was “only minor (if any) anti-inflammatory actions”. In addition, in assay [2] (single agent 300 μM, * possibly cytotoxicity), the “% Inhibition Alone” value was “*92.2 ± 17.1%”.
Turning to `C=C(C)[C@@H]1CCC(C)=C[C@H]1c1c(O)cc(CCCCC)cc1O` [CBD, cannabidiol], the “carrageenan-induced drop of the mechanonociceptive threshold” value in assay [1] (0.5 mg/kg CBD alone) was “not influenced”. The “carrageenan-induced drop of the mechanonociceptive threshold” value in assay [1] (1 mg/kg CBD alone) was “not influenced”. In addition, in assay [1], the “effect on mechanonociceptive threshold when applied alone” value is given as “negligible effects”; the “suppression of the mechanonociceptive threshold by carrageenan” value is on record as “only mildly influenced”; the “basal mechanonociceptive threshold vs vehicle-treated mice” value was “none of the investigated single doses of CBD and BCP influenced the basal mechanonociceptive threshold”. The inhibition at 10 pM in assay [2] (Mus musculus, RAW-Blue, single agent 0.00001 μM, read-out: % Inhibition Alone) was found to be 1.9 ± 0.9%. The inhibition at 0.0001 µM in assay [2] (Mus musculus, RAW-Blue, single agent 0.0001 μM, read-out: % Inhibition Alone) amounted to 2.4 ± 2%. Besides, the inhibition at 0.001 µM in assay [2] (Mus musculus, RAW-Blue, single agent 0.001 μM, read-out: % Inhibition Alone) came to 3.1 ± 3.1%. The inhibition at 0.01 µM in assay [2] (Mus musculus, RAW-Blue, single agent 0.01 μM, read-out: % Inhibition Alone) was 5.8 ± 2.9%. Moreover, the inhibition at 0.1 µM in assay [2] (Mus musculus, RAW-Blue, single agent 0.1 μM, read-out: % Inhibition Alone) is 8.5%. In addition, in assay [2] (Mus musculus, RAW-Blue, single agent 0.3 μM, read-out: % Inhibition Alone), the inhibition at 0.3 µM was 10 ± 0.8%. Also, the inhibition at 1 µM in assay [2] (Mus musculus, RAW-Blue, single agent 1 μM, read-out: % Inhibition Alone) stood at 44.6%. The inhibition at 3 µM in assay [2] (Mus musculus, RAW-Blue, single agent 3 μM, read-out: % Inhibition Alone) came to 40.5 ± 9.5%. In addition, the inhibition at 10 µM in assay [2] (Mus musculus, RAW-Blue, single agent 10 μM, read-out: % Inhibition Alone) worked out at 59.3 ± 3.7%. Also, the inhibition at 30 µM in assay [2] (Mus musculus, RAW-Blue, single agent 30 μM, CBD value flagged * possibly cytotoxicity, read-out: % Inhibition Alone) came out at 78 ± 7.9%. In addition, the “concentrations with marked effects on SEAP levels” value in assay [2] (applied alone) was at least 1 µM. Moreover, the “% Inhibition Alone” value in assay [2] (single agent 30 μM, CBD value flagged * possibly cytotoxicity) is “*78 ± 7.9%”.
